Laboratory results reported in patent US11667652B2, “MCL1 inhibitors” (Gilead Sciences, Inc., priority 2019, dated 2023).
Like-named read-outs stand apart in the source and are kept apart here.

Legend:
MCL1/Bim = MCL1/Bim (Homo sapiens (Human), UniProt Q07820); experiment: MCL1/Bim Binding AlphaLISA Assay; conditions: recombinant human 6xHis-MCL1 (171-327), biotinylated Bim peptide (51-76)
Outline: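 AlphaLISA with 0.0625 nM human 6×His-MCL1 (171-327) and 0.0625 nM biotinylated Bim (51-76) peptide in 20 mM Hepes pH 7.5, 150 mM NaCl, 0.002% Brij 35, 1 mM DTT, 0.01% BSA. Compound preincubated with MCL1 1 h, Bim added 2 h, then acceptor and donor beads 1 h each; % inhibition versus DMSO and no-protein/peptide controls.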

SKBR3 cells = experiment: SKBR3 Cell Viability Assay; type: cell-based; conditions: CellTiter Glo, read-out: MCL1 CV SKBR3 EC50
Outline: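 Viability was measured by CellTiter-Glo luminescence after 72 h at 37° C, 5% CO2. Each well held 6,000 SKBR3 cells in McCoy's 5A/10% FBS dispensed onto serially diluted compound. Percent inhibition is relative to DMSO and 10 μM puromycin controls.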

[1] = Homo sapiens, SK-BR-3, 72 hours

MCL1/Bim, sequence (Q07820 171-327): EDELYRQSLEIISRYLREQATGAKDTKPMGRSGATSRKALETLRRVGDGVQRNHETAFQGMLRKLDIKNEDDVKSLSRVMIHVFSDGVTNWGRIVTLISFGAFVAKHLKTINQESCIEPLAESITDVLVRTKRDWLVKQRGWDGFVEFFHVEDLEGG

| Structure (SMILES) | IC50 (MCL1/Bim) | EC50 (SKBR3 cells; 72 hours) | EC50 (SKBR3 cells; [1]) |
| --- | --- | --- | --- |
| COc1nn(C)cc1C(=O)N[S@@]1(=O)=NC(=O)c2ccc3c(c2)N(C[C@@H]2CC[C@H]2[C@](O)(CCN2CCOCC2)/C=C/C[C@H](C)C1)C[C@@]1(CCCc2cc(Cl)ccc21)CO3 [Example 114] | 0.319 nM | 51 nM |  |
| COc1nn(C)cc1C(=O)N[S@@]1(=O)=NC(=O)c2ccc3c(c2)N(C[C@@H]2CC[C@H]2[C@@H](OC)/C=C/[C@H](OCCN2CC(N(C)C)C2)[C@H](C)C1)C[C@@]1(CCCc2cc(Cl)ccc21)CO3 [Example 80] | 0.253 nM |  | 27.5 nM |
| COCCOCCOCCO[C@H]1/C=C/[C@H](OC)[C@@H]2CC[C@H]2CN2C[C@@]3(CCCc4cc(Cl)ccc43)COc3ccc(cc32)C(=O)N=[S@](=O)(NC(=O)c2cn(C)nc2OC)C[C@H]1C [Example 76] | 0.048 nM |  | 24.1 nM |
| CO[C@H]1/C=C/C[C@H](C)C[S@@](=O)(NC(=O)c2cn(C)nc2N2CCN(C3COC3)CC2)=NC(=O)c2ccc3c(c2)N(C[C@@H]2CC[C@H]21)C[C@@]1(CCCc2cc(Cl)ccc21)CO3 [Example 24] | 0.026 nM |  | 10.3 nM |
| CO[C@H]1/C=C/[C@H](OC)[C@H](C)C[S@@](=O)(NC(=O)c2cn(C)nc2OCCN2CCOCC2)=NC(=O)c2ccc3c(c2)N(C[C@@H]2CC[C@H]21)C[C@@]1(CCCc2cc(Cl)ccc21)CO3 [Example 70] | 0.198 nM | 92.9 nM |  |
| CO[C@H]1/C=C/C[C@H](C)C[S@@](=O)(NC(=O)N[C@H]2C[C@@H]2OC)=NC(=O)c2ccc3c(n2)N(C[C@@H]2CC[C@H]21)C[C@@]1(CCCc2cc(Cl)ccc21)CO3 (mixture of isomers) [Example 188] | 0.06 nM |  | 31.9 nM |
| C=CCO[C@H]1/C=C/C[C@H](C)C[S@@](=O)(NC(=O)c2cn(C)nc2OC)=NC(=O)c2ccc3c(c2)N(C[C@@H]2CC[C@H]21)C[C@@]1(CCCc2cc(Cl)ccc21)CO3 [Example 54] | 0.092 nM | 103 nM |  |
| COc1nn(C)cc1C(=O)N[S@@]1(=O)=NC(=O)c2ccc3c(c2)N(C[C@@H]2CC[C@H]2C(=O)/C=C/C[C@H](C)[C@H]1C)C[C@@]1(CCCc2cc(Cl)ccc21)CO3 [Example 48] | 0.693 nM | 173 nM |  |
| CO[C@H]1/C=C/C[C@H](C)C[S@@](=O)(Nc2cncc(C#N)n2)=NC(=O)c2ccc3c(c2)N(C[C@@H]2CC[C@H]21)C[C@@]1(CCCc2cc(Cl)ccc21)CO3 [Example 6] | 0.891 nM |  | 4390 nM |
| CO[C@H]1/C=C/C[C@H](C)C[S@@](=O)(Nc2nc(C)nc3nn(C)cc23)=NC(=O)c2ccc3c(c2)N(C[C@@H]2CC[C@H]21)C[C@@]1(CCCc2cc(Cl)ccc21)CO3 [Example 12] | 0.129 nM |  | 38.7 nM |
| CO[C@H]1/C=C/CCC[S@@](=O)(NC(=O)c2cnn(C)c2)=NC(=O)c2ccc3c(c2)N(C[C@@H]2CC[C@H]21)C[C@]1(CO3)C[C@@H]2C[C@@H]2c2cc(Cl)ccc21 [Example 173] | 0.1 nM |  | 310 nM |
| CO[C@H]1/C=C/C[C@H](C)C[S@@](=O)(Nc2ncnc3c2cnn3C)=NC(=O)c2ccc3c(c2)N(C[C@@H]2CC[C@H]21)C[C@@]1(CCCc2cc(Cl)ccc21)CO3 [Example 4] | 0.196 nM |  | 240 nM |
| COc1nn(C)cc1C(=O)N[S@@]1(=O)=NC(=O)c2ccc3c(c2)N(C[C@@H]2CC[C@H]2[C@@H]2/C=C/[C@@H](OCCCC(=O)O2)[C@H](C)C1)C[C@@]1(CCCc2cc(Cl)ccc21)CO3 [Example 157] | 0.366 nM | 229 nM |  |
| COc1nn(C)cc1C(=O)N[S@@]1(=O)=NC(=O)c2ccc3c(c2)N(C[C@@H]2CC[C@H]2[C@H]2OCCCC2CC[C@H](C)C1)C[C@@]1(CCCc2cc(Cl)ccc21)CO3 (mixture of isomers) [Example 138] | 1.54 nM | 1050 nM |  |
| COC1CC(C(=O)N[S@@]2(=O)=NC(=O)c3ccc4c(n3)N(C[C@@H]3CC[C@H]3[C@@H](OC)/C=C/C[C@H](C)C2)C[C@@]2(CCCc3cc(Cl)ccc32)CO4)C1 (stereo partly drawn) [Example 195] | 0.05 nM |  | 23.8 nM |
| CO[C@H]1/C=C/[C@H](O)[C@H](C)C[S@@](=O)(Nc2ncnc3nn(C)cc23)=NC(=O)c2ccc3c(c2)N(C[C@@H]2CC[C@H]21)C[C@@]1(CCCc2cc(Cl)ccc21)CO3 [Example 66] | 0.039 nM |  | 8.6 nM |
| COc1nn(C)cc1C(=O)N[S@@]1(=O)=NC(=O)c2ccc3c(c2)N(C[C@@H]2CC[C@H]2[C@@H](OCCN2CCC(OC)CC2)/C=C/C[C@H](C)C1)C[C@@]1(CCCc2cc(Cl)ccc21)CO3 [Example 63] | 0.034 nM |  | 25.2 nM |
| C[C@H]1C/C=C/[C@H](O)[C@@H]2CC[C@H]2CN2C[C@@]3(CCCc4cc(Cl)ccc43)COc3ccc(cc32)C(=O)N=[S@](=O)(Nc2nc(N)nc3nn(C)cc23)C1 [Example 32] | 0.057 nM |  | 18.5 nM |

| Structure (SMILES) | IC50 (MCL1/Bim) | EC50 (SKBR3 cells; 72 hours) | EC50 (SKBR3 cells; [1]) |
| --- | --- | --- | --- |
| COc1nn(C)cc1C(=O)N[S@@]1(=O)=NC(=O)c2ccc3c(c2)N(C[C@@H]2CC[C@H]2C(O)(C#CCN(C)C)/C=C/C[C@H](C)C1)C[C@@]1(CCCc2cc(Cl)ccc21)CO3 (stereo partly drawn) [Example 110] | 0.045 nM | 27.6 nM |  |
| COc1nn(C)cc1C(=O)N[S@@]1(=O)=NC(=O)c2ccc3c(n2)N(C[C@@H]2CC[C@H]2[C@@H](OC)/C=C/[C@@H](OC)[C@H](C)C1)C[C@@]1(CCCc2cc(Cl)ccc21)CO3 [Example 197] | 0.35 nM | 516 nM |  |
| CO[C@H]1/C=C/C[C@H](C)[C@@H](C)[S@@](=O)(NC(=O)c2cnn(C)c2)=NC(=O)c2ccc3c(n2)N(C[C@@H]2CC[C@H]21)C[C@@]1(CCCc2cc(Cl)ccc21)CO3 [Example 200] | 0.05 nM |  | 21.1 nM |
| COc1nn(C)cc1C(=O)N[S@@]1(=O)=NC(=O)c2ccc3c(c2)N(C[C@@H]2CC[C@H]2[C@@H](OC)C[C@@H]2[C@H](OC[C@H]2C)[C@H](C)C1)C[C@@]1(CCCc2ccccc21)CO3 [Example 147] | 0.394 nM | 532 nM |  |
| CO[C@H]1/C=C/C[C@H](C)C[S@@](=O)(Nc2nc(N(C)C)nc3nn(C)cc23)=NC(=O)c2ccc3c(c2)N(C[C@@H]2CC[C@H]21)C[C@@]1(CCCc2cc(Cl)ccc21)CO3 [Example 19] | 0.066 nM |  | 37.8 nM |
| C[C@H]1C/C=C/[C@H](O)[C@@H]2CC[C@H]2CN2C[C@@]3(CCCc4cc(Cl)ccc43)COc3ccc(cc32)C(=O)N=[S@](=O)(Nc2nc(Cl)nc3nn(C)cc23)C1 [Example 30] | 0.03 nM |  | 930 nM |
| COc1nn(C)cc1C(=O)N[S@@]1(=O)=NC(=O)c2ccc3c(c2)N(C[C@@H]2CC[C@H]2[C@](O)(C#CCN(C)C)/C=C/C[C@H](C)C1)C[C@@]1(CCCc2cc(Cl)ccc21)CO3 [Example 109] | 0.028 nM | 35.3 nM |  |
| COc1nn(C)cc1C(=O)N[S@@]1(=O)=NC(=O)c2ccc3c(c2)N(C[C@@H]2CC[C@H]2[C@@H](OC)/C=C/[C@H](OCCn2ccnc2)[C@H](C)C1)C[C@@]1(CCCc2cc(Cl)ccc21)CO3 [Example 88] | 0.055 nM | 170 nM |  |
| COc1nn(C)cc1C(=O)N[S@@]1(=O)=NC(=O)c2ccc3c(c2)N(C[C@@H]2CC[C@H]2[C@H]2OC(=O)C[C@@H]2CC[C@H](C)C1)C[C@@]1(CCCc2cc(Cl)ccc21)CC3 [Example 151] | 0.056 nM |  | 422 nM |
| CO[C@H]1/C=C/C[C@H](C)[C@@H](C)[S@@](=O)(NC(=O)c2cnn(C)c2)=NC(=O)c2ccc3c(n2)N(C[C@@H]2CC[C@H]21)C[C@]1(CO3)C[C@@H]2C[C@@H]2c2cc(Cl)ccc21 [Example 205] | 0.06 nM |  | 81.3 nM |
| COc1nn(C)cc1C(=O)N[S@@]1(=O)=NC(=O)c2ccc3c(c2)N(C[C@@H]2CC[C@H]2[C@@H](OC)C[C@@H]2[C@H](OC[C@H]2C)[C@H](C)C1)C[C@@]1(CCCc2cc(Cl)ccc21)CO3 [Example 145] | 0.189 nM | 178 nM |  |
| CO[C@H]1/C=C/C[C@H](C)[C@@H](C)[S@@](=O)(NC(=O)c2cnn(C3COC3)c2)=NC(=O)c2ccc3c(n2)N(C[C@@H]2CC[C@H]21)C[C@@]1(CCCc2cc(Cl)ccc21)CO3 [Example 201] | 0.1 nM |  | 85 nM |
| COc1nn(C)cc1C(=O)N[S@@]1(=O)=NC(=O)c2ccc3c(c2)N(C[C@@H]2CC[C@H]2[C@@H](OC)/C=C/[C@H](OCc2ccncc2)[C@H](C)C1)C[C@@]1(CCCc2cc(Cl)ccc21)CO3 [Example 84] | 0.099 nM |  | 90 nM |
| COc1nn(C)cc1C(=O)N[S@@]1(=O)=NC(=O)c2ccc3c(n2)N(C[C@@H]2CC[C@H]2[C@@H](OC)/C=C/[C@H](O)[C@H](C)C1)C[C@@]1(CCCc2cc(Cl)ccc21)CO3 (mixture of isomers) [Example 196] | 0.04 nM |  | 81.4 nM |
| COc1nn(C)cc1C(=O)N[S@@]1(=O)=NC(=O)c2ccc3c(c2)N(C[C@@H]2CC[C@H]2[C@@H](OCCN2CC(OC)C2)/C=C/C[C@H](C)C1)C[C@@]1(CCCc2cc(Cl)ccc21)CO3 [Example 61] | 0.136 nM |  | 19.6 nM |
| CO[C@H]1/C=C/C[C@H](C)C[S@@](=O)(NC(=O)NC2CC2)=NC(=O)c2ccc3c(n2)N(C[C@@H]2CC[C@H]21)C[C@@]1(CCCc2cc(Cl)ccc21)CO3 [Example 187] | 0.04 nM |  | 47.8 nM |
| CO[C@H]1/C=C/C[C@H](C)C[S@@](=O)(Nc2nc(Cl)nc3nn(C)cc23)=NC(=O)c2ccc3c(c2)N(C[C@@H]2CC[C@H]21)C[C@@]1(CCCc2cc(Cl)ccc21)CO3 [Example 9] | 0.11 nM |  | 170 nM |
| COc1nn(C)cc1C(=O)N[S@@]1(=O)=NC(=O)c2ccc3c(c2)N(C[C@@H]2CC[C@H]2[C@@](O)(CC(=O)N(C)C)/C=C/C[C@H](C)C1)C[C@@]1(CCCc2cc(Cl)ccc21)CO3 [Example 97] | 0.047 nM | 15.8 nM |  |
